Laboratory results published in patent EP0263903A1, “Method for preparing specific inhibitors of virus-specified proteases” (priority 1986, dated 1988).
Like-named read-outs stand apart in the source and are kept apart here. Residues, ends and D or L forms follow the SMILES beside them. *: point of attachment. Cbz = O=C(OCc1ccccc1)*; CH2Cl = ClC*

How the values were obtained:
rhinovirus type 1A [1] = assay type: cell-based, human rhinovirus type 1A
poliovirus type 2 [2] = assay type: cell-based, human poliomyelitisvirus type 2
poliovirus type 2 [3] = assay type: cell-based
rhinovirus type 1A [4] = test: Plaque inhibition assay; assay type: cell-based, Human rhinovirus type 1A
chymotrypsin = conditions: inhibitor concentration of 600 µg/mL; cited from earlier work
subtilisin BPNʹ = conditions: series of peptide chloromethyl ketones; cited from earlier work

## CC(=O)[C@H](CC(C)C)NC(=O)[C@H](C)NC(=O)CNC(=O)[C@H](Cc1ccccc1)NC(=O)OC(C)(C)C [Boc-Phe-Gly-Ala-LeuCH₃]
Rhinovirus type 1A [1]
  activity in the viral cleavage assay: failed to show activity
Poliovirus type 2 [2]
  activity in the viral cleavage assay: failed to show activity

## COC(=O)CCC(=O)N[C@@H](Cc1ccccc1)C(=O)NCC(=O)N[C@@H](CC(C)C)C(=O)N[C@@H](CC(C)C)C(C)=O [MeOSuc-Phe-Gly-Leu-LeuCH₃]
Poliovirus type 2 [2]; 50 µg/mL
  activity in the viral cleavage assay: active

## CC(=O)[C@H](CC(C)C)NC(=O)[C@H](C)NC(=O)CNC(=O)[C@H](Cc1ccccc1)NC(=O)OCc1ccccc1 [Z-Phe-Gly-Ala-LeuCH₃]
Human HeLa-O cells
  No cytotoxicity observed at concentrations up to: > 1 mg/mL
Poliovirus type 2 [3]
  plaque reduction: > 90%
Rhinovirus type 1A [4]; 50 µg/mL in agar overlays, compared to control plates
  plaque reduction: > 90%
Poliovirus type 2 [2]; 50 µg/mL
  activity in the viral cleavage assay: active

## CC(C)C[C@H](NC(=O)[C@H](CC(C)C)NC(=O)CNC(=O)[C@H](Cc1ccccc1)NC(=O)OCc1ccccc1)C(=O)CCl [Z-Phe-Gly-Leu-LeuCH₂Cl] (Cbz-FGLL-CH2Cl)
Human HeLa-O cells
  cytotoxicity first detected at a concentration of: about 15 µg/mL
Rhinovirus type 1A [4]; HeLa cells
  Antiviral activity, as scored by 90% plaque reduction, noted at: 1 µg/mL

## Ac-Leu-Leu-PheCH₃
chymotrypsin
  inhibition of chymotrypsin: no inhibition was observed

## acetyl-L-phenylalanyl-L-glycyl-L-alanyl-L-leucyl chloromethyl ketone (Ac-FGAL-CH2Cl; SMILES CC(=O)N[C@@H](Cc1ccccc1)C(=O)NCC(=O)N[C@@H](C)C(=O)N[C@@H](CC(C)C)C(=O)CCl) [Ac-Phe-Gly-Ala-LeuCH₂Cl]
Subtilisin BPNʹ
  inhibition of subtilisin BPNʹ (rate ranking among the compounds tested): fastest inhibitor
